Reference: patent publication US20100209345A1, “Fluorinated Ligands for Targeting Peripheral Benzodiazepine Receptors” (Australian Nuclear Science & Technology Organisation, priority 2006, published 2010)

How the values were obtained:
[1] = target: central benzodiazepine receptors; assay: In vitro binding, [3H]-Flumazenil, brain cortex membrane preparation; conditions: [3H]-Flumazenil (2 nM), 25° C., 45 min, read-out: CBR IC50
Outline: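 Brain cortex membranes bound with [3H]-flumazenil; non-specific binding defined by 20 μM flumazenil. Filtration on GF/B, washes in ice-cold 50 mM Tris/HCl pH 7.4, bound counts by scintillation, IC50 derived from displacement.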

[2] = target: T1, peripheral benzodiazepine binding site (Rattus norvegicus, UniProt P16257); assay: In vitro binding, [3H]-PK11195, kidney membrane preparation; conditions: PBR IC50 (nM), [3H]-PK11195 (2 nM), 4° C., 1 h
T1 construct: diluted kidney membrane preparation (200 μg); from tissue; host or cells: kidney membrane preparation
Procedure: Non-specific binding was determined with PK11195 (10 μM).
Non-specific binding was determined with Flumazenil (20 μM). In both cases, incubations were terminated by rapid filtration through Whatman GF/B glass fibre. Filters were immediately washed 3 times with 5 mL ice-cold 50 mM Tris/HCl at pH 7.4. Filters were counted in a β-scintillation counter (Packard) to measure the amount of bound radioactivity. The IC50 of the compounds for the peripheral benzodiazepine binding site and the central benzodiazepine receptor were calculated using Kell 6 software.

CCN(CC)C(=O)Cc1c(-c2ccc(OCCF)cc2)nc2ccc(Cl)cn12 [PBR102, 2-(2-(4-(2-fluoroethoxy)phenyl)-6-chloroimidazo[1,2-a]pyridin-3-yl)-N,N-diethylacetamide]
IC50 [1]: 1560 nM
chromatographic logP (LogP HPLC): 2.7 ± 0.09
IC50 [2]: 13.2 nM

CCN(CC)C(=O)Cc1c(-c2ccc(OCCCF)cc2)nc2ccc(Cl)cn12 [PBR111, 2-(2-(4-(3-fluoropropoxy)phenyl)-6-chloroimidazo[1,2-a]pyridin-3-yl)-N,N-diethylacetamide]
IC50 [1]: 1590 nM
chromatographic logP (LogP HPLC): 3.2 ± 0.1
IC50 [2]: 7.5 nM
